Data set [1] is described as follows: relative bioavailability of oral formulations in rats (plasma DSB free acid). The format is in vivo, Sprague Dawley rats. To be noted: single oral 25 mg/kg; for Cmax: male, po. The protocol: The following study was conducted to compare the relative bioavailability of oral formulations prepared with DSB•2NMG Form I and amorphous DSB•2NMG.
Groups of four male Sprague Dawley rats with surgically implanted jugular cannulas were given a single oral 25 mg/kg dose of DSB•2NMG (Form I or amorphous) in one of six formulations: • Group 1: 10% hydroxypropyl-β-cyclodextrin solution of amorphous DSB•2NMG; • Group 2: 10% hydroxypropyl-β-cyclodextrin solution of DSB•2NMG Form I; • Group 3: Suspension of DSB•2NMG Form I in 0.5% carboxymethylcellulose; • Group 4: Solution of DSB•2NMG Form I in 1% ethanol/10% polyethylene glycol 400/89% water; • Group 5: Solution of DSB•2NMG Form I in 10% propylene glycol/90% water; and • Group 6: Solution of DSB•2NMG Form I in water.

The nature of the next data set: physchem. Particulars: 25 °C, organic solvent or mixture, approximate solubility.
[2] abbreviates: male rats, carboxymethylcellulose, ethanol/PEG 400/water, propylene glycol/water and water formulations.

SMILES strings stand for the structures. Converted amounts (≈) assume the structure as drawn.

A word on the Cmax: it is the maximum level reached in the sampled fluid or tissue. As usually defined, the solubility is the concentration that dissolves in the medium under given conditions.

As to `C=C(C)[C@@H]1CC[C@]2(C(=O)O)CC[C@]3(C)[C@H](CC[C@@H]4[C@@]5(C)CC[C@H](OC(=O)CC(C)(C)C(=O)O)C(C)(C)[C@@H]5CC[C@]43C)[C@@H]12` [DSB•2NMG Form I, 3-O-(3′,3′-dimethylsuccinyl)betulinic acid di-N-methyl-D-glucamine], the “area under the plasma concentration-time curve from time zero extrapolated to infinity (AUCINF)” value in data set [1] (male rats, 10% hydroxypropyl-β-cyclodextrin solution, average, 25 mg/kg) is 23440 ng·h/mL. Also, the “exposure to DSB free acid among Form I formulations” value in data set [1] (male rats, 10% propylene glycol/water vehicle, FIG. 9) is reported as “greatest exposure”. The “AUCINF, times greater than from Form I given in hydroxypropyl-β-cyclodextrin” value in data set [1] (setting [2]) is on record as 1.5-2 times. Further, the “DSB free acid concentrations versus Form I given in 10% hydroxypropyl-β-cyclodextrin” value in data set [1] (setting [2]) was “greater”. Further, the “plasma concentration profile compared to amorphous DSB•2NMG formulation” value in data set [1] (male rats, hydroxypropyl-cyclodextrin formulation, FIG. 8) is “equivalent plasma concentration profiles”. The Cmax in data set [1] (Sprague-Dawley, rat, plasma, 25 mg/kg, solution in 1% ethanol/10% polyethylene glycol 400/water, average) was 8490 ng/mL; in data set [1] (Sprague-Dawley, rat, plasma, 25 mg/kg, solution in 10% propylene glycol/water, average) it was 10400 ng/mL; in data set [1] (Sprague-Dawley, rat, plasma, 25 mg/kg, solution in water, average) it was 9770 ng/mL; in data set [1] (Sprague-Dawley, rat, plasma, 25 mg/kg, suspension in 0.5% carboxymethylcellulose, average), 8200 ng/mL. The solubility in “physchem” (1-butanol) was below 3000 µg/mL; in the data set “physchem” (1-propanol) it was around 5000 µg/mL (≈ 8.55 mM); in “physchem” (2-butanol), below 3000 µg/mL; in “physchem” (2-propanol), below 3000 µg/mL; in “physchem” (acetone), below 3000 µg/mL; in the data set “physchem” (dimethyl formamide), above 50000 µg/mL. In addition, in “physchem” (ethanol), the solubility was around 5000 µg/mL (≈ 8.55 mM).
In the case of `C=C(C)[C@@H]1CC[C@]2(C(=O)O)CC[C@]3(C)[C@H](CC[C@@H]4[C@@]5(C)CC[C@H](OC(=O)CC(C)(C)C(=O)O)C(C)(C)[C@@H]5CC[C@]43C)[C@@H]12` [amorphous DSB•2NMG, 3-O-(3′,3′-dimethylsuccinyl)betulinic acid di-N-methyl-D-glucamine], the AUC(0-inf) in data set [1] (Sprague-Dawley, rat, plasma, male rats, 10% hydroxypropyl-β-cyclodextrin solution, average, read-out: area under the plasma concentration-time curve from time zero extrapolated to infinity (AUCINF)) was 21500 ng·h/mL.

The values above are taken from patent US7799768B2, “Polymorphs of 3-O-(3′,3′-dimethylsuccinyl)betulinic acid di-N-methyl-D-glucamine” (priority 2005, dated 2010).
